In patent US20080155704A1, “Methods and Compositions for Determining in vivo Activity of BiP” (King's College London, priority 2006, published 2008):
Read-outs that look alike come from different tables or passages of the source.

Experiments:
IL-8 = IL-8 production by dendritic cells (cytometric bead array); assay type: cell-based, human; conditions: iDC and mDC, BiP 20 μg/ml, 7d culture (FIG. 7)
Source text: In a series of experiments IL-8 was detected using cytometric bead array (Becton Dickinson) where the mean fluorescence intensity (MFI) is proportional to the concentration of cytokine.

[1] = tested on: collagen-induced arthritis (CIA); conditions: administration of BiP to mice, literature reference, cited from earlier work
[2] = tested on: monocyte-derived dendritic cells; experiment: Surface expression of phenotypic markers on monocyte-derived dendritic cells (immunofluorescence, flow cytometry); assay type: cell-based, human
Protocol: Purified monocytes (>85% monocytes)(1.5.10^6/flask)(Corning Costar, High Wycombe, UK) were incubated in 5 ml of tissue culture medium (TCM)(RPMI 1640 medium (Sigma, Poole, UK) supplemented with 10% heat-inactivated foetal calf serum (FCS)(Life Technologies, Paisley, UK). iDC were generated using granulocyte macrophage—colony stimulating factor (GM-CSF) (1000 U/ml)(Novartis Research Institute, Vienna, Austria) and IL-4 (500 U/ml) (R&D Systems, Oxford, UK). Monocytes were cultured for 3 or 7 days with cytokines, either alone or in the presence of rhuBiP (20 μg/ml). Mature DC were generated by addition of 500 ng/ml lipopolysaccharide (LPS) for the final 2 days of culture.
Immunofluorescent staining was performed as follows when required. Cells were suspended in immunofluorescent buffer (IF) (PBS/0.1% BSA/0.05% azide) washed and incubated for 10 mins on ice with normal human serum. After washing twice in IF buffer, saturating concentrations of fluorescein isothiocyanate (FITC)-, phycoerythrin (PE) or peridium chlorophyll (Per-CP)-conjugated monoclonal antibodies (mAb) recognizing human CD14, CD86, CD80, HLA-DR, CD11c, CD1a, CD83, CD40 and CD85j, (all from Becton Dickinson/PharMingen, Oxford, UK) were added singly or in combination, as stated in the text, to cells for 20 mins on ice. Cells were then washed twice in IF buffer and analysed. Isotype controls, IgG1 and IgG2a (Becton Dickinson, Oxford, UK) were used in parallel.
Purified monocytes were cultured with and without BiP for three days (early DC/early DC(BiP)) or 7 days with GM-CSF and IL-4 (iDC/iDC(BiP)) or for 7 days with additional LPS for the final 2 days (mDC/mDC(BiP)). *BiP [20 μg/ml] was added at the same time as the cytokines. (a) and (b): Results are expressed as mean and standard error (mean ±SE) of the % positive cells from 4 or 7 different experiments, respectively.
Table A: Surface expression of phenotypic markers: Purified monocytes were differentiated into immature dendritic cells (iDC) with GM-CSF and IL-4 for 7d in the presence or absence of BiP (20 μg/ml). LPS (500 ng/ml) was added for the final 2d to give mature DC(mDC). Cell surface expression of molecules was measured by immunofluorescence and flow cytometry. Results are expressed as mean and standard deviation (mean ±SD) of the mean fluorescent intensity (MFI) from 7 different experiments:
Purified MO (>85% monocytes)(1.5.106/flask)(Corning Costar, High Wycombe, UK) were incubated in 5 ml of tissue culture medium (TCM)(RPMI 1640 medium (Sigma, Poole, UK) supplemented with 10% heat-inactivated foetal calf serum (FCS)(Life Technologies, Paisley, UK). iDC were generated by culturing MO with granulocyte macrophage-colony stimulating factor (GM-CSF) (1000 U/ml)(Novartis Research Institute, Vienna, Austria) and IL-4 (500 U/ml) (R&D Systems, Oxford, UK) for 3 or 7d, either alone or in the presence of rhuBiP (20 μg/ml). Cytokines and BiP were replenished every 2d. Mature DC were generated by addition of LPS (500 ng/ml) for the final 2d of a 7d culture.
Immunofluorescent staining was performed, as described previously (39), on DC harvested at day 7, T cells after 4 days co-culture with DC. Saturating concentrations of fluorescein isothiocyanate (FITC)-, phycoerythrin (PE) or peridium chlorophyll (Per-CP)-conjugated mAb were added recognizing CD14, CD86, CD80, HLA-DR, CD11c, CD1a, CD83, CD85j, IL-10 receptor; purity of the negatively selected MO and T cells was checked using CD3, CD4, CD14, CD20 and CD57 (all from Becton Dickinson/PharMingen (BD), Oxford, UK). Intracellular staining was carried out following fixation of cells with 1% paraformaldehyde for 5 minutes. Cells were then washed with immunofluorescence buffer (PBS/0.1% BSA/0.05% azide) containing 0.3% saponin. 0.3% saponin was then present in all solutions thereafter. CD152/CTLA-4 (BD, Oxford UK) and IDO (Santa Cruz, Autogen Bioclear, UK) were intracellular stains. Isotype controls, IgG1 and IgG2a (BD, Oxford, UK) were used in parallel. […]

[3] = Early iDC(BiP): 3 days GM-CSF and IL-4, BiP 20 μg/ml, mean ±SE
[4] = iDC(BiP): 7 days GM-CSF and IL-4, BiP 20 μg/ml, mean ±SE
[5] = mDC(BiP), BiP 20 μg/ml, mean fluorescence intensity, up to 7 experiments
[6] = mDC(BiP): 7 days GM-CSF and IL-4, LPS final 2 days, BiP 20 μg/ml, mean ±SE

## BiP: 78 kD endoplasmic reticulum chaperone protein as disclosed in WO 00/21995; recombinant human protein
IL-8
  IL-8 production (MFI) in culture supernatants: suppressed IL-8 production
[1]
  effect on collagen-induced arthritis: prevented or treated ongoing collagen-induced arthritis
[1]; listed as rhuBiP
  effect on collagen-induced arthritis: prevented the induction of experimental arthritis
[2]; [3]
  % cells CD1a+: 1 ± 2%
  % cells CD11c+: 81 ± 7%
  % cells CD80+: 36 ± 15%
  % cells CD83: 2. ± 2%
  % cells CD86+: 3 ± 1%
  % cells HLA-DR: 31 ± 7%
[2]; Early iDC(BiP): monocytes 3 days with GM-CSF and IL-4, BiP 20 μg/ml, mean ±SE
  % cells CD14: 91 ± 6%
[2]; iDC(BiP), BiP 20 μg/ml, mean fluorescence intensity, up to 7 experiments
  MFI CD11c: 2246 ± 329
[2]; iDC(BiP): 7 days GM-CSF and IL-4, BiP 20 μg/ml
  % positive cells CD40+85j+: 26±19%
[2]; [4]
  % positive cells CD1a+: 83 ± 9%
  % positive cells CD11c+: 97 ± 2%
  % positive cells CD14+: 59 ± 22%
  % positive cells CD40+: 28 ± 20%
  % positive cells CD80+: 88 ± 7%
  % positive cells CD83+: 10 ± 5%
  % positive cells CD86+: 31 ± 11%
  % positive cells CD210+: 12 ± 9%
  % positive cells HLA-DR+: 96 ± 2%
[2]; mDC(BiP) (FIG. 10C)
  maturation as determined by upregulation of CD83 after addition of LPS: failed to mature
[2]; mDC(BiP) versus mDC
  CD40 expression by mDC(BiP): no difference in CD40 expression
[2]; [5]
  MFI CD1a: 685 ± 145
  MFI CD14: 366 ± 216
  MFI CD80: 395 ± 31
  MFI CD86: 112 ± 14
  MFI HLA-DR: 1660 ± 167
[2]; mDC(BiP), n=4
  cell surface expression of CD85j (ILT2): 87.2±3.5%
[2]; [6]
  % positive cells CD1a+: 76 ± 14%
  % positive cells CD11c+: 94 ± 5%
  % positive cells CD14+: 57 ± 22%
  % positive cells CD40+: 32 ± 24%
  % positive cells CD40+85j+: 29 ± 23%
  % positive cells CD80+: 91 ± 6%
  % positive cells CD83+: 10 ± 4%
  % positive cells CD86+: 26 ± 9%
  % positive cells CD210+: 19 ± 17%
  % positive cells HLA-DR+: 96 ± 1%
[2]; mature DC, dose-dependent 0.5-20 μg/ml BiP (FIG. 10B)
  CD14 and CD86 expression on DC cultured in the presence of BiP: sustained CD14 expression and failed to upregulate CD86
